We go through 14 compounds from publication PMC5837613 (Toxicological Sciences, 2017).

Broadly, the IC50 is the point on the concentration scale where inhibition reaches its midpoint. Low readings indicate higher potency, high ones lower potency.

Data set [1] relates to hiPSC CM (iCell Cardiomyocytes). The data set is described as follows: Cellular impedance. Conditions: 3 µM, 2 h exposure; for change in beat amplitude / change in beat rate: significant = >3*SD of vehicle. It is filed as cell-based, human.
Data set [2] shares this test system. The data set is described as follows: Cellular ATP levels. To be noted: 3 µM, 24 h after compound addition. It is filed as cell-based, human.
For another data set, the target named is STK35 (Homo sapiens, UniProt Q8TDR2). As to the kind of experiment: KinomeScan competition binding assay, STK35.
STK35, sequence (Q8TDR2 whole entry): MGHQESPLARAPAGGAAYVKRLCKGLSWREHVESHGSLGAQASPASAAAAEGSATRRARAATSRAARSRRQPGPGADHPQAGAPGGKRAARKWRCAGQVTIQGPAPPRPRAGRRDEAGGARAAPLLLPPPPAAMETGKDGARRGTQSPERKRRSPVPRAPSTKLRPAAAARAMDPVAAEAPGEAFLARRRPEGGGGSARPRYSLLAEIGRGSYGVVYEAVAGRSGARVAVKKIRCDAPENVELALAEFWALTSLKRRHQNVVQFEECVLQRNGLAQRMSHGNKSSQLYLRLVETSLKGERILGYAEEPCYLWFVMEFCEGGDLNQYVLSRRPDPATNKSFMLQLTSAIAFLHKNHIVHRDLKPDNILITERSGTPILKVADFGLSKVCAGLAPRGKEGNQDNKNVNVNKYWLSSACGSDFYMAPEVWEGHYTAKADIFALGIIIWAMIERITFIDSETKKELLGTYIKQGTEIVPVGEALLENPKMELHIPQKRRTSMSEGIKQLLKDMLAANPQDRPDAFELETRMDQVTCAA
For data set [3] the following is noted: human plasma, Cmax at steady state; ref 1-28 of Supplementary Text; cited from earlier work.
A further data set has as its target RPS6KB1 (Homo sapiens, UniProt P23443). The data set is described as follows: KinomeScan competition binding assay, RPS6KB1.
A further data set deals with FAK (Homo sapiens, UniProt Q05397). As to the kind of experiment: KinomeScan competition binding assay, FAK.
FAK, sequence (Q05397 whole entry): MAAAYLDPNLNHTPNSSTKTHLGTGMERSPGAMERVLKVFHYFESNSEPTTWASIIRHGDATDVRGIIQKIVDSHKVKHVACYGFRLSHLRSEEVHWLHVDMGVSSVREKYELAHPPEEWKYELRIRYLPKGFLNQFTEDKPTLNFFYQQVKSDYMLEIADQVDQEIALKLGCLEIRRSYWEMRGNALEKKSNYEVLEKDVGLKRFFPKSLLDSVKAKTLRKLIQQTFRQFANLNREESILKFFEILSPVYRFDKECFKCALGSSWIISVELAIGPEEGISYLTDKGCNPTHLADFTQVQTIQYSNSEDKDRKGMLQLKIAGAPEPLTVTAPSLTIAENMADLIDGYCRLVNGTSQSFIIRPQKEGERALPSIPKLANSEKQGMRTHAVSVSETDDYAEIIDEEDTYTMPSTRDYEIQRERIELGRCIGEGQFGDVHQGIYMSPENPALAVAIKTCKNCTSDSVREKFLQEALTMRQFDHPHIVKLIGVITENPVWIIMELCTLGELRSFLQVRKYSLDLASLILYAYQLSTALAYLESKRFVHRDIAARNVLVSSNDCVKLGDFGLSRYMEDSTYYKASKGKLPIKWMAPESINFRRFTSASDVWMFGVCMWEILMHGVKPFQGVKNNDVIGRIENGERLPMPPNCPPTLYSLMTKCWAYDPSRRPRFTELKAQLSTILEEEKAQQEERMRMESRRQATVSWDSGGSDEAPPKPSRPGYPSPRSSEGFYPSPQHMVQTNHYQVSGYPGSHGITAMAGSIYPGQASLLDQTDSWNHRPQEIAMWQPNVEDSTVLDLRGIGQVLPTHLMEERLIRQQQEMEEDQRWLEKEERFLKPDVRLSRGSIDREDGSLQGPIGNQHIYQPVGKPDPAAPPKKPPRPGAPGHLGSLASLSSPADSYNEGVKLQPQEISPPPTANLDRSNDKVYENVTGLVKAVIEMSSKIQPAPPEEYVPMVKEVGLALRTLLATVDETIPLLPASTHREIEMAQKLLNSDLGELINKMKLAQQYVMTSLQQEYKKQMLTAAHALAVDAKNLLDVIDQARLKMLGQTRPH

Some results are limits rather than exact numbers.

RPS6KB1, sequence (P23443 whole entry): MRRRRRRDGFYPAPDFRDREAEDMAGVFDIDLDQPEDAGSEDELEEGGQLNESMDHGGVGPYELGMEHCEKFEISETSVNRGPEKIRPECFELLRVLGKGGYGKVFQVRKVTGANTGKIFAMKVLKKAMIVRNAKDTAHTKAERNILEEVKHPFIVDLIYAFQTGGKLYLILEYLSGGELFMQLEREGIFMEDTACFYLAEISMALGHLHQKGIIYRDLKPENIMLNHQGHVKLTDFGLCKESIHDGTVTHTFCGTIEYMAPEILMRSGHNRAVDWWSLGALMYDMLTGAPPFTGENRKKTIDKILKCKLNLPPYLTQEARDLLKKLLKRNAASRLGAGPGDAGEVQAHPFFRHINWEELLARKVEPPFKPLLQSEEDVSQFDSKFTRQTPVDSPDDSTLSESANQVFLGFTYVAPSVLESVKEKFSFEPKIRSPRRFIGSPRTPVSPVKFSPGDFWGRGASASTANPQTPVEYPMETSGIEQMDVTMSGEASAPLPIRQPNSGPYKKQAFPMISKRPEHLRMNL

Consider `C[C@]12O[C@H](C[C@]1(O)CO)n1c3ccccc3c3c4c(c5c6ccccc6n2c5c31)CNC4=O` [CEP-701], for which, in data set [1], the “change in beat amplitude” value is reported as “decreased amplitude” and the “change in beat rate” value is on record as “increased beat rate”.
As for `Cc1[nH]nc2ccc(-c3cncc(OC[C@@H](N)Cc4ccccc4)c3)cc12` [A-674563], in data set [1], the “change in beat amplitude” value was “increased amplitude” and the “change in beat rate” value is recorded as “independent of a change in beat rate”.
`Cc1cc2c(F)c(Oc3ncnn4cc(OC[C@@H](C)O)c(C)c34)ccc2[nH]1` [BMS-540215]: the “effect on CM beating (beat rate or amplitude)” value (shortened to “effect on CM beating”) in data set [1] was “induced CM beating effects”.
Still for that read-out and setting: for `Cc1[nH]c(/C=C2\C(=O)Nc3ccc(F)cc32)c(C)c1C(=O)NC[C@H](O)CN1CCOCC1` [SU14813] the value was “no effect on CM beating”.
For `CN[C@@H]1C[C@H]2O[C@@](C)([C@@H]1OC)n1c3ccccc3c3c4c(c5c6ccccc6n2c5c31)C(=O)NC4` [staurosporine], the “cytotoxicity (decreased cellular ATP levels and decreased cell index)” value in data set [2] was “induce cell death”.
The compound `Cc1cc(Nc2cc(N3CCN(C)CC3)nc(/C=C/c3ccccc3)n2)n[nH]1` [ENMD-2076] registered an IC50 on STK35 above 10 µM. For the same compound, the Cmaxss in data set [3] is 600 to 1500 nM.
With `CNC(=O)c1cc(COc2nnc(Nc3ccc(Cl)cc3)c3ccoc23)ccn1` [Telatinib], the IC50 on STK35, at RPS6KB1 and on FAK was above 32 µM throughout. In addition, in data set [3], the Cmaxss was 2000 to 3600 nM.
For the compound `COc1cc2nccc(Oc3ccc(NC(=O)C4(C(=O)Nc5ccc(F)cc5)CC4)cc3)c2cc1OC` [Cabozantinib], the IC50 was determined as 5.7 µM at STK35, 13.2 µM at RPS6KB1 and 2.8 µM on FAK. The Cmaxss in data set [3] is 2800 nM.
In the case of `OCCn1cc(-c2ccc3c(c2)CC/C3=N\O)c(-c2ccncc2)n1` [GDC-0879], in data set [1], the “effect on CM beating” value is given as “induced CM beating effects”, the “change in beat amplitude” value is given as “independent of a change in amplitude” and the “change in beat rate” value is “increased beat rate”.
With `CO[C@@H]1[C@H](N(C)C(=O)c2ccccc2)C[C@H]2O[C@]1(C)n1c3ccccc3c3c4c(c5c6ccccc6n2c5c31)C(=O)NC4` [PKC-412], in data set [1], the “change in beat amplitude” value is on record as “decreased amplitude” and the “change in beat rate” value is reported as “increased beat rate”.
In the same order, the values of `CCn1c(-c2nonc2N)nc2c(C#CC(C)(C)O)ncc(OC[C@H]3CCCNC3)c21` [GSK-690693] are “increased amplitude” and “independent of a change in beat rate”.
Turning to `COc1cc2nccc(Oc3ccc(NC(=O)Nc4cc(C)on4)c(Cl)c3)c2cc1OC` [Tivozanib], the IC50 at STK35 is above 3.2 µM; at RPS6KB1, above 3.2 µM; on FAK, 3.1 µM. Also, the Cmaxss in data set [3] is 200 nM.
As to `NC(=O)Nc1cc(-c2cccc(F)c2)sc1C(=O)N[C@H]1CCCNC1` [AZD7762], the IC50 at STK35 was above 3.2 µM; at RPS6KB1, 3 µM; at FAK, 0.1 µM.
With `Cc1cnc(Nc2ccc(OCCN3CCCC3)cc2)nc1Nc1cccc(S(=O)(=O)NC(C)(C)C)c1` [TG-101348], the “effect on CM beating” value in data set [1] is given as “no effect on CM beating”.
